Data reported in PubChem BioAssay AID1963968 (Molecular Pharmacology Branch, DTP, NCI, 2024).

System: 945468-187-T-J3-PDC spheroids with HUVEC/MSC, viability
Assay: Anticancer human tumor 945468-187-T-J3-PDC patient-derived rectal carcinoma cell line growth inhibition [PI3K]
Conditions: for IC50: curve of first compound; for viability, T/C: stronger effect = lower value
From the text: Combinatorial screen of targeted agents with the PI3K inhibitors inavolisib, alpelisib, duvelisib, and copanlisib in multi-cell type tumor spheroids
A high-throughput screen of multi-cell type tumor spheroids was designed to identify active combinations of targeted small molecules and PI3K pathway inhibitors. Complex spheroids include a stromal component modeled by human endothelial cells (HUVEC) and fibroblasts modeled by human mesenchymal stem cells (MSCs). The concentration ranges selected for each drug and investigational agent were based upon clinically achievable concentrations if the clinical Cmax of the agent was known.
Compounds. The drugs and investigational agents: inavolisib (NSC800729), alpelisib (NSC765974), duvelisib (NSC772469), copanlisib (NSC816437), ipatasertib (NSC767898), afuresertib (NSC778305), talazoparib (NSC767125), sapanisertib (NSC764658), selumetinib (NSC741078), tovorafenib (DAY101, NSC766906), vemurafenib (NSC761431), ravoxertinib (NSC781343), sotorasib (NSC818433), MRTX1133 (NSC 836407), abemaciclib (NSC 768073), palbociclib (NSC758247), venetoclax (NSC 766270), SY5609 (NSC837396), enzalutamide (NSC755605), and darolutamide (NSC825331), were obtained from the National Cancer Institute (NCI) Developmental Therapeutics Program Chemical Repository. The FDA-approved anticancer drug set is available from the NCI Developmental Therapeutics Program. […] The stock solutions were prepared in dimethyl sulfoxide (DMSO, Sigma-Aldrich, St. Louis, MO, cat. D2650) at 800-fold the tested concentration and stored at -70 degrees C prior to their use. All drugs and investigational agents were tested over a range starting from a high concentration at or near the clinical Cmax and decreasing in half-log increments. If the clinical Cmax for an agent had not been determined, the highest concentration tested was 10 microM.
Cell Culture. All cells were maintained in an incubator at 37 degrees C and 5% CO2 with 95% humidity. The PDC lines were cultured according to standard operating procedures established by the NCI PDMR (https://pdmr.cancer.gov/sops/default.htm). All PDCs were thawed and cultured in Matrigel-coated flasks prepared with a working solution of 1X Ham's F-12 nutrient mix, without supplementation (Invitrogen, Waltham, MA, cat. 11765054), 100 U/mL penicillin-streptomycin (Invitrogen, cat. 15140122), and 2.5% Matrigel (Corning Inc., Corning, NY, cat. 354248) for the first three passages. The 354836-022-R-J1-PDC, 475296-252-R-J1-PDC, and 997726-040-R-J2-PDC lines were cultured in 6A media, which includes advanced DMEM/F-12 (Thermo Fisher Scientific, cat. 12634028), 10 mM HEPES (Thermo Fisher Scientific, cat. 15630080), 1X GlutaMAX supplement (Thermo Fisher Scientific, cat. 35050061), 0.1 mg/mL primocin (InvivoGen, San Diego, CA, cat. ant-pm-2), 10% defined fetal bovine serum, heat inactivated (HyClone Laboratories Inc., Logan, UT, cat. SH30070.03HI), 50% L-WRN conditioned media (ATCC, cat. CRL-3276), 1.25 mM N-Acetyl-L-cysteine (Sigma-Aldrich, cat. A9165), 10 mM nicotinamide (Sigma-Aldrich, cat. N0636), 1X B-27 supplement (Thermo Fisher Scientific, cat. 17504044), 1X N-2 supplement (Thermo Fisher Scientific, cat. 17502048), and 10 microM Y-27632 dihydrochloride (Tocris Bioscience, Bristol, United Kingdom, cat. 1254). The 624824-186-R-J2-PDC line was cultured in 6C/Colon 1B media, which includes all 6A media components plus 50 ng/mL human EGF recombinant protein (Thermo Fisher Scientific, cat. PHG0311). […]

[1] = second compound 0.00316 µM, first compound 0.0316 µM
[2] = second compound 0.00316 µM, first compound 0.1 µM
[3] = second compound 0.00316 µM, first compound 0.316 µM
[4] = second compound 0.00316 µM, first compound 1 µM
[5] = second compound 0.00316 µM, first compound 3.16 µM
[6] = second compound 0.00316 µM, first compound 10 µM
[7] = second compound 0.01 µM, first compound 0.0316 µM
[8] = second compound 0.01 µM, first compound 0.1 µM
[9] = second compound 0.01 µM, first compound 0.316 µM
[10] = second compound 0.01 µM, first compound 1 µM
[11] = second compound 0.01 µM, first compound 3.16 µM
[12] = second compound 0.01 µM, first compound 10 µM
[13] = second compound 0.0316 µM, first compound 0.0316 µM
[14] = second compound 0.0316 µM, first compound 0.1 µM
[15] = second compound 0.0316 µM, first compound 0.316 µM
[16] = second compound 0.0316 µM, first compound 1 µM
[17] = second compound 0.0316 µM, first compound 3.16 µM
[18] = second compound 0.0316 µM, first compound 10 µM
[19] = second compound 0.1 µM, first compound 0.0316 µM
[20] = second compound 0.1 µM, first compound 0.1 µM
[21] = second compound 0.1 µM, first compound 0.316 µM
[22] = second compound 0.1 µM, first compound 1 µM
[23] = second compound 0.1 µM, first compound 3.16 µM
[24] = second compound 0.1 µM, first compound 10 µM
[25] = second compound 0.316 µM, first compound 0.0316 µM
[26] = second compound 0.316 µM, first compound 0.1 µM
[27] = second compound 0.316 µM, first compound 0.316 µM
[28] = second compound 0.316 µM, first compound 1 µM
[29] = second compound 0.316 µM, first compound 3.16 µM
[30] = second compound 0.316 µM, first compound 10 µM
[31] = second compound 1 µM, first compound 0.0316 µM
[32] = second compound 1 µM, first compound 0.1 µM
[33] = second compound 1 µM, first compound 0.316 µM
[34] = second compound 1 µM, first compound 1 µM
[35] = second compound 1 µM, first compound 3.16 µM
[36] = second compound 1 µM, first compound 10 µM
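Also: spheroids exposed to agents for 7 days before viability read.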
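For viability, T/C in this document: 100% = DMSO vehicle control viability.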

In the case of `CC(C)NCC(C(=O)N1CCN(c2ncnc3c2C(C)CC3O)CC1)c1ccc(Cl)cc1` (stereo unspecified) + CC(Nc1ccc2c(c1)OCCn1cc(N3C(=O)OCC3C(F)F)nc1-2)C(N)=O, the IC50 (second compound 0.00316 µM) is reported as 8.44 µM, the IC50 (second compound 0.01 µM) is reported as over 10 µM and the IC50 (second compound 0.0316 µM) is reported as 6.85 µM. It also gave an IC50 (second compound 0.1 µM) of 2.81 µM, an IC50 (second compound 0.316 µM) of 0.91 µM and an IC50 (second compound 1 µM) of 1.38 µM. It also gave a viability, T/C [1] of 93.8%, a viability, T/C [2] of 93.9% and a viability, T/C [3] of 103%. It also gave a viability, T/C [4] of 91.6%, a viability, T/C [5] of 58.6% and a viability, T/C [6] of 48.5%. For the same molecule, the viability, T/C [7] was 111%, the viability, T/C [8] was 103% and the viability, T/C [9] was 104%. The viability, T/C [10] was 96.7%, the viability, T/C [11] was 54.9% and the viability, T/C [12] was 59.2%. It also gave a viability, T/C [13] of 93.7%, a viability, T/C [14] of 91.8% and a viability, T/C [15] of 94.1%. It also gave a viability, T/C [16] of 90.9%, a viability, T/C [17] of 55.6% and a viability, T/C [18] of 47.3%. It also gave a viability, T/C [19] of 101%, a viability, T/C [20] of 93.4% and a viability, T/C [21] of 87%. The viability, T/C [22] was 76.4%, the viability, T/C [23] was 45% and the viability, T/C [24] was 31.5%. It also gave a viability, T/C [25] of 101%, a viability, T/C [26] of 89.3% and a viability, T/C [27] of 62.7%. It also gave a viability, T/C [28] of 49.6%, a viability, T/C [29] of 39% and a viability, T/C [30] of 29.3%. The viability, T/C [31] was 62.8%, the viability, T/C [32] was 70.4% and the viability, T/C [33] was 57.8%. For the same molecule, the viability, T/C [34] was 57.3%, the viability, T/C [35] was 34.1% and the viability, T/C [36] was 26.7%.
Work on `CC1(C)CCC(CN2CCN(c3ccc(C(=O)NS(=O)(=O)c4ccc(NCC5CCOCC5)c([N+](=O)[O-])c4)c(Oc4cnc5[nH]ccc5c4)c3)CC2)=C(c2ccc(Cl)cc2)C1` + CC(Nc1ccc2c(c1)OCCn1cc(N3C(=O)OCC3C(F)F)nc1-2)C(N)=O yielded an IC50 (second compound 0.00316 µM) of over 10 µM, an IC50 (second compound 0.01 µM) of over 10 µM and an IC50 (second compound 0.0316 µM) of over 10 µM. It also gave an IC50 (second compound 0.1 µM) of over 10 µM, an IC50 (second compound 0.316 µM) of over 10 µM and an IC50 (second compound 1 µM) of over 10 µM. For the same molecule, the viability, T/C [1] was 96.8%, the viability, T/C [2] was 112% and the viability, T/C [3] was 102%. For the same molecule, the viability, T/C [4] was 114%, the viability, T/C [5] was 131% and the viability, T/C [6] was 52.9%. The viability, T/C [7] was 97.7%, the viability, T/C [8] was 125% and the viability, T/C [9] was 94%. It also gave a viability, T/C [10] of 114%, a viability, T/C [11] of 132% and a viability, T/C [12] of 63.2%. For the same molecule, the viability, T/C [13] was 121%, the viability, T/C [14] was 101% and the viability, T/C [15] was 112%. For the same molecule, the viability, T/C [16] was 121%, the viability, T/C [17] was 125% and the viability, T/C [18] was 63.2%. The viability, T/C [19] was 121%, the viability, T/C [20] was 114% and the viability, T/C [21] was 105%. It also gave a viability, T/C [22] of 126%, a viability, T/C [23] of 125% and a viability, T/C [24] of 65.5%. The viability, T/C [25] was 107%, the viability, T/C [26] was 103% and the viability, T/C [27] was 102%. It also gave a viability, T/C [28] of 113%, a viability, T/C [29] of 120% and a viability, T/C [30] of 73.2%. For the same molecule, the viability, T/C [31] was 79.2%, the viability, T/C [32] was 68% and the viability, T/C [33] was 80%. The viability, T/C [34] was 79.2%, the viability, T/C [35] was 81.1% and the viability, T/C [36] was 53.9%.
Molecule `C[C@@H](NC(=O)c1ncnc(N)c1Cl)c1ncc(C(=O)Nc2cc(C(F)(F)F)c(Cl)cn2)s1` + CC(Nc1ccc2c(c1)OCCn1cc(N3C(=O)OCC3C(F)F)nc1-2)C(N)=O has an IC50 (second compound 0.00316 µM) of over 10 µM, an IC50 (second compound 0.01 µM) of over 10 µM and an IC50 (second compound 0.0316 µM) of over 10 µM. For the same molecule, the IC50 (second compound 0.1 µM) was over 10 µM, the IC50 (second compound 0.316 µM) was over 10 µM and the IC50 (second compound 1 µM) was over 10 µM. It also gave a viability, T/C [1] of 97.2%, a viability, T/C [2] of 97.5% and a viability, T/C [3] of 116%. For the same molecule, the viability, T/C [4] was 91.5%, the viability, T/C [5] was 111% and the viability, T/C [6] was 92%. It also gave a viability, T/C [7] of 94.7%, a viability, T/C [8] of 110% and a viability, T/C [9] of 101%. It also gave a viability, T/C [10] of 88.4%, a viability, T/C [11] of 90.8% and a viability, T/C [12] of 98.4%. For the same molecule, the viability, T/C [13] was 94.4%, the viability, T/C [14] was 89.3% and the viability, T/C [15] was 94.4%. For the same molecule, the viability, T/C [16] was 95.1%, the viability, T/C [17] was 103% and the viability, T/C [18] was 94.3%. The viability, T/C [19] was 91.2%, the viability, T/C [20] was 102% and the viability, T/C [21] was 101%. For the same molecule, the viability, T/C [22] was 100%, the viability, T/C [23] was 96.7% and the viability, T/C [24] was 95.8%. It also gave a viability, T/C [25] of 109%, a viability, T/C [26] of 112% and a viability, T/C [27] of 92.7%. For the same molecule, the viability, T/C [28] was 92.7%, the viability, T/C [29] was 88.8% and the viability, T/C [30] was 96.3%. For the same molecule, the viability, T/C [31] was 67.5%, the viability, T/C [32] was 56.1% and the viability, T/C [33] was 63.7%. It also gave a viability, T/C [34] of 56.8%, a viability, T/C [35] of 65.1% and a viability, T/C [36] of 62.4%.
